Results published in PubChem BioAssay (NCI).
Where “and” joins values, the source holds several entries; their conditions need not be identical. Equal values may be shown once.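 Five concentrations, 48 hours, 96-well plates. GI50: concentration for 50% inhibition of growth. TGI marks complete inhibition of growth.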

Columns and labels:
Test in all cases: NCI tumour cell line growth inhibition, 48 h
DLD-1 colon = tested on: DLD-1 colon
KM20L2 colon = tested on: KM20L2 colon
LXFL 529 NSCLC = tested on: LXFL 529 NSCLC
M19-MEL melanoma = tested on: M19-MEL melanoma
RXF-631 renal = tested on: RXF-631 renal
XF 498 CNS = tested on: XF 498 CNS
DMS 273 small cell lung = tested on: DMS 273 small cell lung
SNB-78 CNS = tested on: SNB-78 CNS
MDA-N = tested on: MDA-N
SN12K1 renal = tested on: SN12K1 renal

## Cc1ccccc1C1=[N+]([O-])c2ccccc2C1=O
DLD-1 colon
  TGI: 31.9 µM
KM20L2 colon
  TGI: 32.9 µM
LXFL 529 NSCLC
  TGI: 28.3 µM
M19-MEL melanoma
  TGI: 28.5 µM
RXF-631 renal
  TGI: 42.8 µM
XF 498 CNS
  TGI: 31.3 µM

## Nc1nc2sc3ccccc3c(=O)n2n1
DLD-1 colon
  TGI: > 100 µM
DMS 273 small cell lung
  TGI: > 100 µM
KM20L2 colon
  TGI: > 100 µM
LXFL 529 NSCLC
  TGI: > 100 µM
SNB-78 CNS
  TGI: > 100 µM
XF 498 CNS
  TGI: > 100 µM

## Nc1cc(C(=O)O)[nH]c(=O)n1
MDA-N
  TGI: > 100 µM

## Cc1oc2c(C)c3oc(=O)cc(C)c3cc2c1CNC(=O)[C@@H]1OCCOCCOCCOCCOCCOC1C(=O)O (some centres not stated)
DLD-1 colon
  TGI: > 100 µM
DMS 273 small cell lung
  TGI: > 100 µM
KM20L2 colon
  TGI: > 100 µM
LXFL 529 NSCLC
  TGI: 27.7 µM
M19-MEL melanoma
  TGI: > 100 µM
RXF-631 renal
  TGI: > 100 µM
SNB-78 CNS
  TGI: > 100 µM

## CCOC(=O)/C(=N\OC)C(O)C(F)(F)F (configuration not stated)
MDA-N
  TGI: > 100 µM

## CCCCCCCC(=O)NCC(O)CNC(=O)CCCCCCC
DLD-1 colon
  TGI: > 100 µM
DMS 273 small cell lung
  TGI: > 100 µM
KM20L2 colon
  TGI: > 100 µM
LXFL 529 NSCLC
  TGI: > 100 µM
M19-MEL melanoma
  TGI: > 100 µM
SNB-78 CNS
  TGI: > 100 µM
XF 498 CNS
  TGI: > 100 µM

## CCOC(=O)c1c(-c2ccccc2)oc(-c2ccccc2)c1C(=O)OCC
DLD-1 colon
  TGI: > 100 µM
DMS 273 small cell lung
  TGI: > 100 µM
KM20L2 colon
  TGI: > 100 µM
LXFL 529 NSCLC
  TGI: > 100 µM
M19-MEL melanoma
  TGI: > 100 µM
SNB-78 CNS
  TGI: > 100 µM
XF 498 CNS
  TGI: > 100 µM

## CC[O-].CC[O-].O=C([CH-]C(=O)c1cccnc1)c1ccccc1.O=C([CH-]C(=O)c1cccnc1)c1ccccc1.[Ti+4]
DMS 273 small cell lung
  GI50: 68.6 µM
  TGI: > 100 µM
KM20L2 colon
  GI50: 62 µM
  TGI: > 100 µM
LXFL 529 NSCLC
  GI50: 43.6 µM
  TGI: > 100 µM
M19-MEL melanoma
  GI50: 77.7 µM
  TGI: > 100 µM
RXF-631 renal
  GI50: 25.9 µM
  TGI: > 100 µM
SNB-78 CNS
  GI50: > 100 µM
  TGI: > 100 µM
XF 498 CNS
  GI50: 32.8 µM
  TGI: 90.6 µM

## CN(C)CCN(C)CC1COC(C)(C)O1 (configuration not stated)
DLD-1 colon
  TGI: > 100 µM
DMS 273 small cell lung
  TGI: > 100 µM
KM20L2 colon
  TGI: > 100 µM
LXFL 529 NSCLC
  TGI: > 100 µM
M19-MEL melanoma
  TGI: > 100 µM
SNB-78 CNS
  TGI: > 100 µM
XF 498 CNS
  TGI: > 100 µM

## CCC1C(=O)OCc2c1cc1n(c2=O)Cc2cc3ccccc3nc2-1 (configuration not stated)
MDA-N
  TGI: > 100 µM

## O=C(C=Nc1ccccc1C(=O)[O-])c1cccs1.O=C(C=Nc1ccccc1C(=O)[O-])c1cccs1.[Co+2]
DLD-1 colon
  TGI: > 100 µM
KM20L2 colon
  TGI: > 100 µM
M19-MEL melanoma
  GI50: > 100 µM
  TGI: > 100 µM

## COc1ccc2c(c1O)C13CCN(C)C(C2)C1CCC1(C3)OCCO1 (configuration not stated)
MDA-N
  TGI: > 100 µM

## C=C(C)C1Cc2c(cc(OC)c3c(=O)c4cccc(O)c4oc23)O1 (configuration not stated)
MDA-N
  TGI: 53.1 µM

## [Cl][Sn]([Cl])([c]1ccccc1)[c]1ccccc1
DLD-1 colon
  GI50: 4.51 µM
  TGI: 17.5 µM
KM20L2 colon
  GI50: 14.8 µM
  TGI: 28 µM
LXFL 529 NSCLC
  GI50: 1.53 µM
  TGI: 2.93 µM
M19-MEL melanoma
  GI50: 19.5 µM
  TGI: 68.6 µM
SNB-78 CNS
  GI50: 9.33 µM
  TGI: 56.7 µM
XF 498 CNS
  GI50: 2.58 µM
  TGI: 6.21 µM

## Cc1cc(Cl)cc2c(N=Nc3ccccc3[N+](=O)[O-])c(O)[nH]c12
MDA-N
  TGI: > 100 µM

## CCC[CH2][Sn]([CH2]CCC)([O]C(=O)c1cc(F)ccc1F)[O][Sn]([CH2]CCC)([CH2]CCC)[O]C(=O)c1cc(F)ccc1F
DLD-1 colon
  GI50: 0.206 µM
  TGI: 0.974 µM
DMS 273 small cell lung
  GI50: 0.331 µM
  TGI: 1.56 µM
KM20L2 colon
  GI50: 0.779 µM
  TGI: 2.11 µM
LXFL 529 NSCLC
  GI50: 0.0185 µM
  TGI: 0.155 µM
M19-MEL melanoma
  GI50: 0.0854 µM
  TGI: 0.459 µM
MDA-N
  GI50: 0.239 µM
  TGI: 1.46 µM
SNB-78 CNS
  GI50: 0.222 µM
  TGI: 1.59 µM
XF 498 CNS
  GI50: 0.16 µM
  TGI: 0.305 µM

## CCN(CC)CCCn1cnc2ncccc2c1=O
DLD-1 colon
  TGI: > 100 µM
DMS 273 small cell lung
  TGI: > 100 µM
LXFL 529 NSCLC
  TGI: > 100 µM
M19-MEL melanoma
  TGI: > 100 µM
SNB-78 CNS
  TGI: > 100 µM

## Cc1noc2cccc(OCc3ccccc3)c12
DLD-1 colon
  TGI: > 100 µM
DMS 273 small cell lung
  TGI: > 100 µM
KM20L2 colon
  TGI: > 100 µM
LXFL 529 NSCLC
  TGI: > 100 µM
M19-MEL melanoma
  TGI: > 100 µM
RXF-631 renal
  TGI: > 100 µM
SNB-78 CNS
  TGI: > 100 µM
XF 498 CNS
  TGI: > 100 µM

## CCOC(=O)N1C2C=C(C)C(ON2C(=O)c2ccccc2)C2C(C)C(=O)N21 (configuration not stated)
DLD-1 colon
  TGI: > 100 µM
DMS 273 small cell lung
  TGI: > 100 µM
KM20L2 colon
  TGI: > 100 µM
LXFL 529 NSCLC
  TGI: > 100 µM
M19-MEL melanoma
  TGI: > 100 µM
SNB-78 CNS
  TGI: > 100 µM
XF 498 CNS
  TGI: > 100 µM

## COc1ccc2c(c1)C(=O)N1CCOC1C2C(=O)O (configuration not stated)
DLD-1 colon
  TGI: > 100 µM
DMS 273 small cell lung
  TGI: 11.2 µM
KM20L2 colon
  TGI: > 100 µM
LXFL 529 NSCLC
  TGI: > 100 µM
M19-MEL melanoma
  TGI: > 100 µM
RXF-631 renal
  TGI: > 100 µM
SNB-78 CNS
  TGI: > 100 µM
XF 498 CNS
  TGI: > 100 µM

## C/C(=N\NC(N)=S)c1cc(C)c(C)cc1C
DLD-1 colon
  TGI: > 100 µM
DMS 273 small cell lung
  TGI: > 100 µM
KM20L2 colon
  TGI: > 100 µM
LXFL 529 NSCLC
  TGI: > 100 µM
M19-MEL melanoma
  TGI: 74.2 µM
RXF-631 renal
  TGI: > 100 µM
SNB-78 CNS
  TGI: > 100 µM
XF 498 CNS
  TGI: 50.3 µM

## CS(=O)(=O)OCC1OC(n2ccc(NC(=O)c3ccccc3)nc2=O)CC1OS(C)(=O)=O (configuration not stated)
MDA-N
  TGI: > 100 µM

## C/C=C/C1=C(Cl)C(=O)[C@@H](Cl)[C@@]1(O)C(=O)OC
DLD-1 colon
  TGI: 9.35 µM
DMS 273 small cell lung
  TGI: 9.61 µM
KM20L2 colon
  TGI: 15.9 µM
LXFL 529 NSCLC
  TGI: 7.41 µM
M19-MEL melanoma
  TGI: 10.1 µM
RXF-631 renal
  TGI: 43.9 µM
SN12K1 renal
  TGI: 4.48 µM
SNB-78 CNS
  TGI: 39.4 µM
XF 498 CNS
  TGI: 13.3 µM

## Cc1nc(-c2ccccc2)c(Cc2ccccc2O)c(=O)[nH]1
MDA-N
  TGI: > 100 µM

## O=C(CCC(=O)Nc1cccc(Cl)c1)CC(=O)c1ccc(F)cc1
DLD-1 colon
  TGI: > 100 µM
DMS 273 small cell lung
  TGI: > 100 µM
KM20L2 colon
  TGI: > 100 µM
SNB-78 CNS
  TGI: > 100 µM
XF 498 CNS
  TGI: > 100 µM

## O=C1c2cccnc2C(=O)C2C3C=CC(C3)C12 (configuration not stated)
MDA-N
  TGI: 13.2 µM

## CC(=O)N1c2ccccc2C2=CC3C4C(=O)N(c5ccccc5)C(=O)C4C21C1C(=O)N(c2ccccc2)C(=O)C31 (configuration not stated)
DLD-1 colon
  TGI: > 100 µM
KM20L2 colon
  TGI: 70 µM
LXFL 529 NSCLC
  TGI: > 100 µM
SNB-78 CNS
  TGI: > 100 µM
XF 498 CNS
  TGI: 76.8 µM

## CC(=O)Oc1cc(C)c2c(c1OC(C)=O)CC1(O2)[C@@H](C)CCC2[C@@]3(C)CC[C@H](OC(C)=O)C(C)(C)C3CC[C@]21C (some centres not stated)
DLD-1 colon
  TGI: 15.1 µM
DMS 273 small cell lung
  TGI: 4.46 µM
KM20L2 colon
  TGI: 28.3 µM
LXFL 529 NSCLC
  TGI: 16 µM
M19-MEL melanoma
  TGI: 5.04 µM
RXF-631 renal
  TGI: 19.9 µM
SNB-78 CNS
  TGI: 4.64 µM

## S=C(N/N=C(/c1ccccc1)c1ccccn1)N1CCCCC1
MDA-N
  GI50: 0.118 µM
  TGI: 2.26 µM and 2.62 µM

## O=S(=O)(N/N=C/c1ccc(Cl)c(Cl)c1)c1ccccc1
DLD-1 colon
  TGI: > 100 µM
DMS 273 small cell lung
  TGI: > 100 µM
KM20L2 colon
  TGI: > 100 µM
LXFL 529 NSCLC
  TGI: > 100 µM
M19-MEL melanoma
  TGI: > 100 µM
SNB-78 CNS
  TGI: > 100 µM
XF 498 CNS
  TGI: > 100 µM

## Nc1nc(N)c(Cn2ccnc2)c(=O)[nH]1
MDA-N
  TGI: > 100 µM
